Measurements from patent publication US9260429B2, “Pyrido[3,4-B]indoles and methods of use” (Medivation Technologies, Inc., priority 2008, dated 2016).

Columns and labels:
[1] = biological target: T1, human recombinant histamine H1 receptor (Homo sapiens, UniProt P35367); test: Histamine H1 radioligand binding ([3H]Pyrilamine); conditions: 1 μM; read-out: Binding data (Percentage Inhibition) Histamine Binding (1 μM) H1
T1 construct: expressed in transfected cells; host or cells: CHO cells
How it was run: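 Binding to the human recombinant histamine H1 receptor, expressed in CHO cells, was measured in a modified Tris-HCl buffer (50 mM Tris-HCl, pH 7.4, 2 mM MgCl2, 100 mM NaCl, 250 mM Sucrose). Compounds were incubated with 1.2 nM [3H]Pyrilamine for 180 minutes at 25° C, with 1 μM pyrilamine defining non-specific binding. After filtration and washing, filter counts gave percent inhibition of specific binding.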

[2] = biological target: T2, human recombinant dopamine D2L receptor (Homo sapiens, UniProt P14416); test: Dopamine D2L radioligand binding ([3H]Spiperone); conditions: 2 h, 1 μM ligand conc.; read-out: Percent Inhibition of ligand binding Dopamine (1 μM ligand conc.) D2L
T2 construct: expressed in transfected cells; host or cells: CHO cells
How it was run: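 CHO-expressed receptor in 50 mM Tris-HCl pH 7.4 with ascorbic acid, 0.001% BSA, 150 mM NaCl; 0.16 nM [3H]spiperone, 120 min at 25 °C; nonspecific binding with haloperidol.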

[3] = biological target: T3, human recombinant serotonin (5-Hydroxytryptamine) 5-HT2C receptor (Homo sapiens, UniProt P28335); test: Serotonin 5-HT2C radioligand binding ([3H]Mesulergine); conditions: for inhibition at 1 µM: 1 h, read-out: Percent Inhibition of ligand binding Serotonin (1 μM ligand concentration) 5-HT2C
T3 construct: expressed in transfected cells; host or cells: CHO-K1 cells
T3 sequence (P28335 33-458): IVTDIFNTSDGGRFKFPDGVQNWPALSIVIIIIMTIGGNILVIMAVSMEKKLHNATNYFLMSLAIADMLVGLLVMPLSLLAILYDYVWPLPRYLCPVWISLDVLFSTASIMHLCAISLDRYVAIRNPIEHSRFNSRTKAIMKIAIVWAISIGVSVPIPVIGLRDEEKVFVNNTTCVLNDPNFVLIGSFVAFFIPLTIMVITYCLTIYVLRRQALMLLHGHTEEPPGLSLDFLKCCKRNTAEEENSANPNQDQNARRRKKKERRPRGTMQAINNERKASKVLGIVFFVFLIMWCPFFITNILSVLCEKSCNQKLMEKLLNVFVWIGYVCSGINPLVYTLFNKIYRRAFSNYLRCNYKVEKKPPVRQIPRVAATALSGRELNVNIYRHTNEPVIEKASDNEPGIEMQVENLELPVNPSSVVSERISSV
Protocol: Compounds of the invention were incubated with 1 nM [^3H]Mesulergine for 60 minutes at 25° C. Non-specific binding was estimated in the presence of 1 μM Mianserin. Receptor proteins were filtered and washed, the filters were then counted to determine [^3H]Mesulergine specifically bound. […] Biochemical assay results are presented as the percent inhibition of specific binding in Table 5.

[4] = biological target: T4, human recombinant serotonin (5-Hydroxytryptamine) 5-HT6 receptor (Homo sapiens, UniProt P50406); test: Serotonin 5-HT6 radioligand binding ([3H]LSD); conditions: 2 h; read-out: Percent Inhibition of ligand binding Serotonin (1 μM ligand concentration) 5-HT6
T4 construct: expressed in transfected cells; host or cells: human HeLa cells
How it was run: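 Human 5-HT6 receptor expressed in HeLa cells, in Tris-HCl pH 7.4 with 150 mM NaCl, ascorbic acid and BSA. Compounds at 1 μM or lower (1% DMSO) incubated 120 min at 37° C with 1.5 nM [3H]LSD. Non-specific binding defined with serotonin; filter counting gives % inhibition of specific binding.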

T1 sequence (P35367 whole entry): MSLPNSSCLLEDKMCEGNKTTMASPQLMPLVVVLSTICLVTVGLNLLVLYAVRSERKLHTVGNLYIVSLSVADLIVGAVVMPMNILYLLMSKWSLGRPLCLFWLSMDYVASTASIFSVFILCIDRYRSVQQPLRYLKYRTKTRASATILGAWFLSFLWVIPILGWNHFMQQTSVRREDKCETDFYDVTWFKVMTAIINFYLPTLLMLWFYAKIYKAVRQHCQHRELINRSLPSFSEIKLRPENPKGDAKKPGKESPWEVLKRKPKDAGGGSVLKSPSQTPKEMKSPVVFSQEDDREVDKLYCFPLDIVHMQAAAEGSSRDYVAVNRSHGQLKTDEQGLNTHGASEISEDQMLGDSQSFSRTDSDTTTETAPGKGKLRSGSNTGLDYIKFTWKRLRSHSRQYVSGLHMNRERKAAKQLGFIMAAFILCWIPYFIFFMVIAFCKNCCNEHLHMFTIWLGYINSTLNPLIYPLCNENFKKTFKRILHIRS
T2 sequence (P14416 whole entry): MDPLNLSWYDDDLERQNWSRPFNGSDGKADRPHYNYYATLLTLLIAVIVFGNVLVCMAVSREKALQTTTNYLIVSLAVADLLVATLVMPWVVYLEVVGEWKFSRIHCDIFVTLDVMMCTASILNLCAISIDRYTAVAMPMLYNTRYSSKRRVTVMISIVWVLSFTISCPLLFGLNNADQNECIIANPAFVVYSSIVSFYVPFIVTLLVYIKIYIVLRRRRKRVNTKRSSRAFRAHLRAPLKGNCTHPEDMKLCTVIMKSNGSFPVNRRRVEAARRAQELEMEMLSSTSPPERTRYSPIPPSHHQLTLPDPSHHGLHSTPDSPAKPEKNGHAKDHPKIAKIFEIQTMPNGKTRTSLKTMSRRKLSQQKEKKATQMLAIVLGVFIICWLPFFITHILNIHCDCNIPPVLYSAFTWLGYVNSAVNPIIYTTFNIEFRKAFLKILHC
T4 sequence (P50406 whole entry): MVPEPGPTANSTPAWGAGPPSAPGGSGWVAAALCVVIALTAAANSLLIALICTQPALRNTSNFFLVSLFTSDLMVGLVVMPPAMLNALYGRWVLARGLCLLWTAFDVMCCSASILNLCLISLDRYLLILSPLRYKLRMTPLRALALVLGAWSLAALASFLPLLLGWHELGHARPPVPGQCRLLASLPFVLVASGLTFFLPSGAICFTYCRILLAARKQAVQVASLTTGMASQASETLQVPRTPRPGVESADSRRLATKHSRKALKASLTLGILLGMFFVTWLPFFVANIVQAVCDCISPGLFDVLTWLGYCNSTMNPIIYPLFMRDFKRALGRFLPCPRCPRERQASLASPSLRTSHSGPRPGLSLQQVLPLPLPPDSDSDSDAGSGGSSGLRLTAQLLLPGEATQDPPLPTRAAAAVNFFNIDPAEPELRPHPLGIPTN

SMILES	inhibition at 1 µM [1] [%]	inhibition at 1 µM [2] [%]	inhibition at 1 µM [3] [%]	inhibition at 1 µM [4] [%]	Percent Inhibition of ligand binding Serotonin (1 μM ligand concentration) 5-HT2C [3] [%]
Cc1ccc2c(c1)c1c(n2CCc2ccc(C)nc2)CN(C)CC1 [Compound 1, 2,3,4,9-tetrahydro-2,6-dimethyl-9-(2-(6-methylpyridin-3-yl)ethyl)-1H-pyrido[3,4-b]indole]	77	6	25	5	
Cc1ccc2c(c1)c1c(n2CCC2CCCCC2)CN(C)CC1 [Compound 2, 9-(2-cyclohexylethyl)-2,3,4,9-tetrahydro-2,6-dimethyl-1H-pyrido[3,4-b]indole]	95	-7	84	58	
CN1CCc2c(n(CCc3ccc(F)cc3)c3ccc(Cl)cc23)C1 [Compound 3, 9-(4-fluorophenethyl)-6-chloro-2,3,4,9-tetrahydro-2-methyl-1H-pyrido[3,4-b]indole]	83	47	90	100	
Cc1ccc2c(c1)c1c(n2CCc2ccc(C(F)(F)F)nc2)CN(C)CC1 [Compound 5, 9-(2-(6-(trifluoromethyl)pyridin-3-yl)ethyl)-2,3,4,9-tetrahydro-2,6-dimethyl-1H-pyrido[3,4-b]indole]	35	0	39	6	
CC(C)CCN(C)C(=O)Cn1c2c(c3cc(Cl)ccc31)CCN(C)C2 [Compound 14, 2-(6-chloro-1,2,3,4-tetrahydro-2-methylpyrido[3,4-b]indol-9-yl)-N-isopentyl-N-methylacetamide]	0	6	20	12	
CN1CCc2c(n(CC(=O)Nc3ccc(F)cc3)c3ccc(Cl)cc23)C1 [Compound 15, 2-(6-chloro-1,2,3,4-tetrahydro-2-methylpyrido[3,4-b]indol-9-yl)-N-(4-fluorophenyl)acetamide]	0	-5	15	-2	
CN1CCc2c(n(CC(=O)N(C)C)c3ccc(Cl)cc23)C1 [Compound 16, 2-(6-chloro-1,2,3,4-tetrahydro-2-methylpyrido[3,4-b]indol-9-yl)-N,N-dimethylacetamide]	16	-7	-18	9	
CN1CCc2c(n(CC(=O)NC3CCCCC3)c3ccc(Cl)cc23)C1 [Compound 17, 2-(6-chloro-1,2,3,4-tetrahydro-2-methylpyvrido[3,4-b]indol-9-yl)-N-cyclohexylacetamide]	54	-3	3	3	
CN1CCc2c(n(CC(=O)N(C)C3CCCCC3)c3ccc(Cl)cc23)C1 [Compound 18, 2-(6-chloro-1,2,3,4-tetrahydro-2-methylpyrido[3,4-b]indol-9-yl)-N-cyclohexyl-N-methylacetamide]	10	0	3	1	
COC(=O)Cn1c2c(c3cc(C)ccc31)CCN(C)C2 [Compound 21, methyl 2-(1,2,3,4-tetrahydro-2,6-dimethylpyrido[3,4-b]indol-9-yl)acetate]	3	-1		6	16
CN1CCc2c(n(CCCc3ccccc3)c3ccc(Cl)cc23)C1 [Compound 29, 6-chloro-2,3,4,9-tetrahydro-2-methyl-9-(3-phenylpropyl)-1H-pyrido[3,4-b]indole]	98	24	90	62	
CN1CCc2c(n(CCN3CCCCC3)c3ccc(Cl)cc23)C1 [Compound 34, 6-chloro-2,3,4,9-tetrahydro-2-methyl-9-(2-(piperidin-1-yl)ethyl)-1H-pyrido[3,4-b]indole]	56	9	37	16	
CN1CCc2c(n(CCC3CCCC3)c3ccc(Cl)cc23)C1 [Compound 35, 6-chloro-9-(2-cyclopentylethyl)-2,3,4,9-tetrahydro-2-methyl-1H-pyrido[3,4-b]indole]	98	3	87	67	
CC1CCN(C(=O)Cn2c3c(c4cc(Cl)ccc42)CCN(C)C3)CC1 [Compound 38, 2-(6-chloro-1,2,3,4-tetrahydro-2-methylpyrido[3,4-b]indol-9-yl)-1-(4-methylpiperidin-1-vyl)ethanone]	16	-8	14	-2	
CN1CCc2c(n(CC(=O)N3CCCC3)c3ccc(Cl)cc23)C1 [Compound 40, 2-(6-chloro-1,2,3,4-tetrahydro-2-methylpyrido[3,4-b]indol-9-yl)-1-(pyrrolidin-1-yl)ethanone]	7	-11	12	6	
Cc1ccc2c(c1)c1c(n2CCC(=O)N2CCCCC2)CN(C)CC1 [Compound 43, 3-(1,2,3,4-tetrahydro-2,6-dimethylpyrido[3,4-b]indol-9-yl)-1-(piperidin-1-yl)propan-1-one]	30	-8	31	3	
CN1CCc2c(n(CCCC(=O)N3CCCCC3)c3ccc(Cl)cc23)C1 [Compound 44, 4-(6-chloro-1,2,3,4-tetrahydro-2-methylpyrido[3,4-b]indol-9-yl)-1-(piperidin-1-yl)butan-1-one]	62	8	54	12	
CN1CCc2c(n(CC(=O)O)c3ccc(Cl)cc23)C1 [Compound 52, 2-(6-chloro-1,2,3,4-tetrahydro-2-methylpyrido[3,4-b]indol-9-yl)acetic acid]	3	1	-4	-4	
Cc1ccc2c(c1)c1c(n2CC(=O)O)CN(C)CC1 [Compound 53, 2-(1,2,3,4-tetrahydro-2,6-dimethylpyrido[3,4-b]indol-9-yl)acetic acid]	5	6	-3	-8	
COC(=O)Cn1c2c(c3cc(Cl)ccc31)CCN(C)C2 [Compound 54, methyl 2-(6-chloro-2-methyl-3,4-dihydro-1H-pyrido[3,4-b]indol-9(2H)-yl)acetate]	5	-16		8	−1
CN1CCc2c(n(CC(=O)N3CCNCC3)c3ccc(Cl)cc23)C1 [Compound 55, 2-(6-chloro-2-methyl-3,4-dihydro-1H-pyrido[3,4-b]indol-9(2H)-yl)-1-(piperazin-1-yl)ethanone]	90	-6	13	0	
Cc1ccc(CCCn2c3c(c4cc(Cl)ccc42)CCN(C)C3)cn1 [Compound 56, 6-chloro-2-methyl-9-(3-(6-methylpyridin-3-yl)propyl)-2,3,4,9-tetrahydro-1H-pyrido[3,4-b]indole]	30	9	-3	-3	
Cc1ccc2c(c1)c1c(n2CC(=O)N2CCCCC2)CN(C)CC1 [Compound 57, 2-(2,6-dimethyl-3,4-dihydro-1H-pyrido[3,4-b]indol-9(2H)-yl)-1-(piperidin-1-yl)ethanone]	0	6	14	6	
